Experimental data taken from patent publication US5686486A, “4-hydroxy-benzopyran-2-ones and 4-hydroxy-cycloalkyl[b]pyran-2-ones useful to treat retroviral infections” (priority 1995, dated 1997).
Values joined by “and” are separate entries in the source; they are usually repeats but may differ in a detail not shown here. Equal entries are not always repeated. Where two headings read alike, the source gives them in different places.

Columns and labels:
HIV-1 protease [1] = molecular target: T1, HIV-1 protease (Human immunodeficiency virus type 1 group M subtype B, UniProt P04585); test: biochemical; conditions: for inhibition at 0.37 µM: read-out: HIV-1 Protease % Inhib, dose 0.370 uM; for inhibition at 1.1 µM: read-out: HIV-1 Protease % Inhib, dose 1.100 uM; for inhibition at 3.3 µM: read-out: HIV-1 Protease % Inhib, dose 3.300 uM; for inhibition at 10 µM: read-out: HIV-1 Protease % Inhib, dose 10.000 uM; for inhibition at 30 µM: read-out: HIV-1 Protease % Inhib, dose 30.000 uM; for inhibition at 0.123 µM: read-out: HIV-1 Protease % Inhib, dose 0.123 uM; for inhibition at 1 µM: read-out: HIV-1 Protease % Inhib, dose 1.000 uM; for inhibition at 100 µM: read-out: HIV-1 Protease % Inhib, dose 100.000 uM
Outline: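 Percent inhibition derived from fluorescent cleavage product separated by filtration after streptavidin-bead capture of intact biotin/FITC substrate. Reaction: enzyme (10 μl, 0.1 μM stock) with substrate (20 μl, 0.2 μM stock) and compound, 1 h at room temperature in dark, pH 5.5 acetate buffer with 1.0 M NaCl and 0.05% NP-40.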

HIV-1 protease [2] = molecular target: T1, HIV-1 protease; test: biochemical
Outline: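 Enzyme (40 nM stock) and substrate (200 μM stock) incubated with inhibitor, 24–48 two-fold serial concentrations, for 90 min at room temperature, then quenched with avidin beads. Nonlinear least-squares analysis gives Ki; a known-Ki inhibitor validates each run.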

Compound | Ki (HIV-1 protease [2]; read-out: HIV-1 FITC KI) | inhibition at 0.37 µM (HIV-1 protease [1]) [%] | inhibition at 1.1 µM (HIV-1 protease [1]) [%] | inhibition at 3.3 µM (HIV-1 protease [1]) [%] | inhibition at 10 µM (HIV-1 protease [1]) [%] | inhibition at 30 µM (HIV-1 protease [1]) [%] | inhibition at 0.123 µM (HIV-1 protease [1]) [%] | other results
N-[3-[Cyclopropyl(5,6,7,8,9,10-hexahydro-4-hydroxy-2-oxo-2H-cycloocta[b]pyran-3-yl)-methyl]phenyl]-(3-N-ethylbenzenesulfonyl)benzenesulfonamide [Example 414] | 3.5 nM |  |  |  |  |  |  | HIV-1 Protease % Inhib (HIV-1 protease [1]; dose 0.123 uM): 62.73%; HIV-1 Protease % Inhib (HIV-1 protease [1]; dose 0.370 uM): 85.78%; HIV-1 Protease % Inhib (HIV-1 protease [1]; dose 1.100 uM): 103.16%; HIV-1 Protease % Inhib (HIV-1 protease [1]; dose 3.300 uM): 105.93%; HIV-1 Protease % Inhib (HIV-1 protease [1]; dose 10.000 uM): 104.38%; HIV-1 Protease % Inhib (HIV-1 protease [1]; dose 30.000 uM): 109.61%
O=c1oc2c(c(O)c1C(c1ccc(CCO)s1)C1CC1)CCCCCC2 (centres unmarked) [Example 385] | 12.4 nM | 48.5 | 89.5 | 104 | 107 | 107 |  | 
O=c1oc2c(c(O)c1C(c1cccc(NS(=O)(=O)c3cccc(CO)c3)c1)C1CC1)CCCCCC2 (centres unmarked) [Example 356, N-[3-[Cyclopropyl(5,6,7,8,9,10-hexahydro-4-hydroxy-2-oxo-2H-cycloocta[b]pyran-3-yl)methyl]phenyl]-3-[methanol]-benzenesulfonamide] | 1.32 nM | 97.2 | 97.9 | 101 | 102 | 100 | 97.7 | 
O=C(Nc1cccc(C(c2c(O)c3c(oc2=O)CCCCCC3)C2CC2)c1)c1ccc(F)cc1 (centres unmarked) [Example 210, Benzamide, N-[3-[cyclopropyl(5,6,7,8,9,10-hexahydro4-hydroxy-2-oxo-2H-cycloocta[b]pyran-3-yl)methyl]phenyl]-4-fluoro-] | 55 nM | 31.5 | 58.1 | 77.6 | 88.8 | 97.3 | 19.7 | 
CCC(c1cccc(NC(=O)CCNC(=O)OC(C)(C)C)c1)c1c(O)c2c(oc1=O)CCCCCC2 (centres unmarked) [Example 219, Carbamic acid, [3-[[3-[1-(5,6,7,8,9,10-hexahydro4-hydroxy-2-oxo-2H-cycloocta[b]pyran-3-yl)propyl]phenyl]amino]-3-oxopropyl]-, 1,1-dimethylethyl ester] | 10.4 nM | 81 | 92.5 | 100 | 109 | 97.3 | 52.1 | 
CC(C)(C)OC(=O)NCC(=O)Nc1cccc(C(c2c(O)c3c(oc2=O)CCCCCC3)C2CC2)c1 (centres unmarked) [Example 200, Carbamic acid, [2-[[3-[cyclopropyl(5,6,7,8,9,10-hexahydro-4-hydroxy-2-oxo-2H-cycloocta[b]pyran-3-yl)methyl]phenyl]amino]-2-oxyethyl]-, 1,1-dimethylethyl ester] | 2.9 nM | 88.5 | 90.9 | 103 | 105 | 99.1 | 64.6 | 
CCCCC1CCCCCc2c1oc(=O)c(C(c1ccccc1)C1CC1)c2O (centres unmarked) [Example 129, 10-Butyl-3-(cyclopropyl-phenyl-methyl)4-hydroxy-5,6,7,8,9,10-hexahydro-cycloocta[b]pyran-2-one] | 31 nM | 67.8 | 96.5 | 106 | 117 | 120 | 23.2 | 
CCCS(=O)(=O)Nc1cccc(C(c2c(O)c3c(oc2=O)CCCCCC3)C2CC2)c1 (centres unmarked) [Example 324, N-[3-[Cyclopropyl(5,6,7,8,9,10-hexahydro-4-hydroxy-2-oxo-2H-cycloocta[b]pyran-3-yl)methyl]phenyl]-1-propanesulfonamide] | 4 nM | 87.5 | 103 | 108 | 116 | 117 | 44.3 | 
O=c1oc2c(c(O)c1C(c1cccc(NS(=O)(=O)c3cc(Cl)sc3Cl)c1)C1CC1)CCCCCC2 (centres unmarked) [Example 304, 2,5-Dichloro-N-[3-[cyclopropyl(5,6,7,8,9,10-hexahydro-4-hydroxy-2-oxo-2H-cycloocta[b]pyran-3-yl)methyl]phenyl]-3-thiophenesulfonamide] | 27.9 nM | 60.2 | 85.9 | 97.8 | 104 | 95.6 | 25.7 | 
CCCC(c1cccc(NS(=O)(=O)c2cccc3cccnc23)c1)c1c(O)c2c(oc1=O)CCCCCC2 (centres unmarked) [Example 432, 8-Quinolinesulfonamide, N-[3-[1-(5,6,7,8,9,10-hexahydro4-hydroxy-2-oxo-2H-cycloocta[b]pyran-3-yl)butyl]phenyl]-] | 1.65 nM | 104 | 111 | 109 | 107 | 98 | 101 | 
CCC(c1ccccc1)c1c(O)c2c(oc1=O)CCCC2 (stereo not drawn) [Example 109, 5,6,7,8-Tetrahydro-4-hydroxy-3-(1-phenylpropyl)-2H-l-benzopyran-2-one] | 1090 nM |  |  |  | 71.9 |  |  | inhibition at 1 µM (HIV-1 protease [1]): < 10%; inhibition at 100 µM (HIV-1 protease [1]): 92%
O=C(Nc1cccc(C(c2c(O)c3c(oc2=O)CCCCCC3)C2CC2)c1)OCc1ccccc1 (centres unmarked) [Example 119, Carbamic acid, [3-[cyclopropyl(5,6,7,8,9,10-hexahydro-4-hydroxy-2-oxo-2H-cycloocta[b]pyran-3-yl)methyl]phenyl]-, phenylmethyl ester] | 257 nM |  |  |  |  |  |  | inhibition at 0.41 µM (HIV-1 protease [1]; read-out: HIV-1 Protease % Inhib, dose 0.410 uM): 27.5%; inhibition at 1.23 µM (HIV-1 protease [1]; read-out: HIV-1 Protease % Inhib, dose 1.230 uM): 55.4%; inhibition at 3.7 µM (HIV-1 protease [1]; read-out: HIV-1 Protease % Inhib, dose 3.700 uM): 82.5%; inhibition at 11 µM (HIV-1 protease [1]; read-out: HIV-1 Protease % Inhib, dose 11.000 uM): 97.7%; inhibition at 33 µM (HIV-1 protease [1]; read-out: HIV-1 Protease % Inhib, dose 33.000 uM): 96.8%; inhibition at 100 µM (HIV-1 protease [1]): 101%
O=c1oc2c(c(O)c1C(c1cccc(NS(=O)(=O)c3ccccc3)c1)C1CC1)CCCCCC2 (centres unmarked) [Example 319, N-[3-[Cyclopropyl(5,6,7,8,9,10-hexahydro-4-hydroxy-2-oxo-2H-cycloocta[b]pyran-3-yl)methyl]phenyl]-benzenesulfonamide] | 4.3 nM and 3.3 nM and 2.1 nM | 84.2 | 93.1 | 94.3 | 102 | 101 | 67 | 
O=c1oc2c(c(O)c1C(c1cccc(NS(=O)(=O)c3cc(C(F)(F)F)cc(C(F)(F)F)c3)c1)C1CC1)CCCCCC2 (centres unmarked) [Example 332, N-[3-[Cyclopropyl(5,6,7,8,9,10-hexahydro-4-hydroxy-2-oxo-2H-cycloocta[b]pyran-3-yl)methyl]phenyl]-3,5-bis(trifluoromethyl)-benzenesulfonamide] | 47 nM | 39.3 | 71.5 | 94 | 109 | 115 | 23.1 | 
O=c1oc2c(c(O)c1C(c1cccc(NS(=O)(=O)Nc3ccccc3)c1)C1CC1)CCCCCC2 (centres unmarked) [Example 397] | 7.3 nM | 92.9 | 105 | 109 | 116 | 113 | 35.7 | 
O=c1oc2ccccc2c(O)c1C(Cc1ccccc1)Cc1ccccc1 [Example 146, 3-(1-Benzyl-2-phenyl-ethyl)4-hydroxy-chromen-2-one] |  |  |  |  | 92.7 |  |  | inhibition at 1 µM (HIV-1 protease [1]): 54.4%; inhibition at 100 µM (HIV-1 protease [1]): 98.6%; Ki (HIV-1 protease [2]; HIV-1 FITC KI): 130 nM
O=c1oc2c(c(O)c1C(c1cccc(NS(=O)(=O)CCCI)c1)C1CC1)CCCCCC2 (centres unmarked) [Example 365C, 3-Iodo-N-[3-[cyclopropyl(5,6,7,8,9,10-hexahydro-4-hydroxy-2-oxo-2H-cycloocta[b]pyran-3-yl)methyl]phenyl]-1-propanesulfonamide] | 16.6 nM | 93.6 | 102 | 71.5 | 87.5 | 83.5 | 63 | 
O=c1oc2c(c(O)c1C(c1cccs1)C1CC1)CCCCCC2 (stereo not drawn) [Example 379, 3-(α-Cyclopropylthien-2-ylmethyl)-4-hydroxy-5,6,7,8,9,10-hexahydrocycloocta[b]pyran-2-one] | 18.3 nM | 48.6 | 84.5 | 96.2 | 107 | 113 |  | 
CCS(=O)(=O)Nc1cccc(C(c2c(O)c3c(oc2=O)CCCCCC3)C2CC2)c1 (centres unmarked) [Example 318, N-[3-[Cyclopropyl(5,6,7,8,9,10-hexahydro-4-hydroxy-2-oxo-2H-cycloocta[b]pyran-3-yl)methyl]phenyl]-ethanesulfonamide] | 9.9 nM | 45.1 | 84.2 | 99.7 | 97.5 | 106 | 28.3 | 
